# From patent publication EP4512806A1, “MOLECULAR GLUE DEGRADERS AND USES THEREOF” (Mablink Bioscience, priority 2023, dated 2025)
# What was measured:
# [1] = In vivo mice tolerability assessment; settings: female CD-1 mice, single intravenous 1mg/kg dose, Mean
# Description: All animal procedures were performed in accordance with the European Union directive 86/609/EEC. Experiments were performed under individual permit and in accredited animal care facilities.
# Mouse tolerability experiments were performed with selected compounds of the disclosure. Female CD-1 mice (n=5 mice per group) were treated with a single intravenous 1mg/kg dose of compound. Vehicle was PBS pH 6.0. Mice were carefully monitored for mortality, external clinical findings, weight loss, behavior and apparent signs of toxicity over the course of 21 days.
# CycK = target: T1, CycK (Homo sapiens, UniProt O75909); experiment: CycK protein quantification by Western Blot in JIMT-1 cells; format: cell-based
# T1 construct: endogenous in cells; host or cells: JIMT-1
# T1 sequence (O75909 whole entry): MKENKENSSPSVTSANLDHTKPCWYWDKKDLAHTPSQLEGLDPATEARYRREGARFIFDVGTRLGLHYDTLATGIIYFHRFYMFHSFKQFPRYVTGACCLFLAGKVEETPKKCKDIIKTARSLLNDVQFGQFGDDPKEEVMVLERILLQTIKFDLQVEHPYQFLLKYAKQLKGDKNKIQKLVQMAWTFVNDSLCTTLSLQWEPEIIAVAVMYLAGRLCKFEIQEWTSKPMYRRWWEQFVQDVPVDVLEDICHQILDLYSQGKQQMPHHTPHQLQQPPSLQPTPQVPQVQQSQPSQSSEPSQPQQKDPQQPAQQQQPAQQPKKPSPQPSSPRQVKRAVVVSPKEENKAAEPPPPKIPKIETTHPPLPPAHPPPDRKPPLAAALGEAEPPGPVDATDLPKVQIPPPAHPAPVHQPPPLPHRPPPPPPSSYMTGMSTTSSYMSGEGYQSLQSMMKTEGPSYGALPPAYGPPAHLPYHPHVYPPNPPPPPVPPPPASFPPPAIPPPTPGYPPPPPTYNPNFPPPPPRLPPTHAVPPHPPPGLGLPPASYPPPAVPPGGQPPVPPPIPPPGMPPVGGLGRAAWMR
# T1 sequence (Q9NYV4 whole entry partner): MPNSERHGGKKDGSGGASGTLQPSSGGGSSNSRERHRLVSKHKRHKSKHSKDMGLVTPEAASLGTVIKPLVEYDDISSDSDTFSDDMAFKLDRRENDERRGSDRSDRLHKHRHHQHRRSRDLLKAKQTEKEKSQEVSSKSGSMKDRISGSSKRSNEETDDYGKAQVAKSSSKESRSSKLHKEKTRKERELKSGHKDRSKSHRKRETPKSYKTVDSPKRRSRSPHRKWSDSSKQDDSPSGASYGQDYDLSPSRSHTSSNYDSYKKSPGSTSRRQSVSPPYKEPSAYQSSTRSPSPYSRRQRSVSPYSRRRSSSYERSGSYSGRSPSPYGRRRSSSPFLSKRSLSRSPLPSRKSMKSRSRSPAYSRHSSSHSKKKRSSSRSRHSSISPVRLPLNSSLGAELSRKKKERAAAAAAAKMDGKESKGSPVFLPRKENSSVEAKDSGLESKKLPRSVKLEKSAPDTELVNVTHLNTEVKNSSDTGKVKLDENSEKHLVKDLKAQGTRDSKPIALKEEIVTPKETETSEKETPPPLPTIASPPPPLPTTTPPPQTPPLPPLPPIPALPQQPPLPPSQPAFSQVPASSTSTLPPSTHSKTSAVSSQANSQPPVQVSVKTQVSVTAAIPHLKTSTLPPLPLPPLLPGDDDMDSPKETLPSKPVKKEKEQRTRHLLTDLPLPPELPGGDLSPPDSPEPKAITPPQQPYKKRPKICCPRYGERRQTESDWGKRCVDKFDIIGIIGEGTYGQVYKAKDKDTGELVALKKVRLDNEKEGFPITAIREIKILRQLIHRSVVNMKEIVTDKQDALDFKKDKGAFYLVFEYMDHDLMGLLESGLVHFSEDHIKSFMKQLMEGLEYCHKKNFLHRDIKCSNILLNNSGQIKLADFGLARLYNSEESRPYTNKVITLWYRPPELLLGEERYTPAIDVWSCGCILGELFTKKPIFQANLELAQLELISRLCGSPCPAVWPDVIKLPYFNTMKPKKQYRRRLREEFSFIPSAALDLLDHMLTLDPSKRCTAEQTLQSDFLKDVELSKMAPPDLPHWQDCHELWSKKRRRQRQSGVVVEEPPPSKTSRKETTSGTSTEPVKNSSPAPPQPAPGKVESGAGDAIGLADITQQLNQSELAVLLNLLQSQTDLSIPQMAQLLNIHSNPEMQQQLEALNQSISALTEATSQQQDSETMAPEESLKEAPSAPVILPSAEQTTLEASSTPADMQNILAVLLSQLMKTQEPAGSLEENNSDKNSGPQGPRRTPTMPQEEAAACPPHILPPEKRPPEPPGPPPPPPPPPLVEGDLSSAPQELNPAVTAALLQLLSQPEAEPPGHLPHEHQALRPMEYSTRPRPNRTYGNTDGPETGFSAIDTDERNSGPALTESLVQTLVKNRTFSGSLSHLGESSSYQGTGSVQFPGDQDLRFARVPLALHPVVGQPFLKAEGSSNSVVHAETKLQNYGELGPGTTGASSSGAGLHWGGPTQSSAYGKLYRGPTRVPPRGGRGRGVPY
# T1 sequence (Q16531 whole entry partner): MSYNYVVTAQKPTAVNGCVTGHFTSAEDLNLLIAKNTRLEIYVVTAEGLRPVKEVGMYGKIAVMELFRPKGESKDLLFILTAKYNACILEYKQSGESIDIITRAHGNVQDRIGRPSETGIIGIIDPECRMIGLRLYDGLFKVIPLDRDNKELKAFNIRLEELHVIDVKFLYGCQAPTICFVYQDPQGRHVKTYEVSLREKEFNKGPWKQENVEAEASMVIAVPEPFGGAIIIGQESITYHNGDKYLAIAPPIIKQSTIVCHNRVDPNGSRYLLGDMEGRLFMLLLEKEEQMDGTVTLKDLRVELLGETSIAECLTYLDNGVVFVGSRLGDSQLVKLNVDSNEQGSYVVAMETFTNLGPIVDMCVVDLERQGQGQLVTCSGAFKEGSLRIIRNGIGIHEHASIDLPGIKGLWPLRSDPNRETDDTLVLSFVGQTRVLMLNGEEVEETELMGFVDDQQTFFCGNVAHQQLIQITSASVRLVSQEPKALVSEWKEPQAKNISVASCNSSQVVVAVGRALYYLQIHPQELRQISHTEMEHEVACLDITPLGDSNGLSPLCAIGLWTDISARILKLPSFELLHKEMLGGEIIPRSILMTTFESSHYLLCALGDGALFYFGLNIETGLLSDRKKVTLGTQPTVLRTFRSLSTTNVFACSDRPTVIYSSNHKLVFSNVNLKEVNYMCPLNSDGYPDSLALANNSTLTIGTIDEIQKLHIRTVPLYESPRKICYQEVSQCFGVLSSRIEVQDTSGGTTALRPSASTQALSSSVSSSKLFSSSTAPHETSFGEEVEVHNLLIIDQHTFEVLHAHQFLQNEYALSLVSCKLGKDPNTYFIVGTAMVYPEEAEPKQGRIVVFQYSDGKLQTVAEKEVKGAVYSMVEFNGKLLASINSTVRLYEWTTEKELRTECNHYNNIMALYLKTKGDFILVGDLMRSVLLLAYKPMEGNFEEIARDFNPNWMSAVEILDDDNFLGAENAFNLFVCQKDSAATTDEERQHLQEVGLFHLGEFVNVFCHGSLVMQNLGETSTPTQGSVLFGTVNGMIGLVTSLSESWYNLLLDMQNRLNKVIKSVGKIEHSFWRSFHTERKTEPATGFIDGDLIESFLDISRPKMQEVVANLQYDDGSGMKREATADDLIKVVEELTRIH
# Description: 1×10^6 JIMT-1 cells were plated in 3mL of DMEM/FBS 90:10 (v/v) in 6-well plates and incubated overnight. Cells were treated with the compound 2384 of the invention with or without the proteasome inhibitor MG-132 (MedChemExpress, Cat HY-13259) for 2h. Cells were harvested, and protein were extracted using complete RIPA buffer (RIPA buffer, 1 mM DTT, 1M NaF, 100 mM sodium orthovanadate, phosphatase inhibitor buffer and protease inhibitors) for 1 hour on ice. Lysate were centrifuged 15min at 12 000g at 4°C. and proteins were mixed with 4x Laemmli Sample Buffer (Bio-Rad), heated at 95 °C for 5 mins and separated by SDS PAGE (PROTEAN TGX Stain-Free Gels, Bio-Rad). Proteins were then transferred onto PVDF membrane (iBlot®2 PVDF stacks, Invitrogen) using the iBlot2 device (Invitrogen) and blocked with TBS buffer (Intercept® Blocking Buffer, LI-COR Biosciences). Primary antibodies were incubated overnight at 4°C and secondary antibodies (IRDye Infrared Dyes from LI-COR Biosciences) 1 hour at room temperature. Used primary antibody were: anti-CycK (cat#A301-939A, Bethyl Laboratories, dil. 1:1000) and anti-β-actin (cat#A5441, Sigma-Aldrich, dil. 1:5000). Membranes were scanned using a c500 Imaging System (Azure Biosystems) and densitometric quantification were performed using imaged software. Protein levels were normalized against β-actin.
# Cyclin K = experiment: CycK mRNA RT-qPCR in JIMT-1 cells; format: cell-based, human; settings: 1µM final concentration, 2h
# Description: 1×10^6 JIMT-1 cells were plated in 3mL of DMEM/FBS 90:10 (v/v) in 6-well plates and incubated overnight. Cells were treated with the compound 2384 of the invention, with CR8 (a known molecular glue degrader that depletes CycK) or with the proteasome inhibitor MG-132 (MedChemExpress, Cat HY-13259) for 2h. RNA was extracted using the QIAamp RNeasy Mini Kit (cat#74106, Qiagen) according to the manufacturer's protocol. Reverse transcription was performed using SuperScripr™ IV reverse transcriptase (cat#LT02241, Invitrogen). Quantitative PCR was performed using a No ROX Sybr Master Mix in the LightCycler 480 Real-Time PCR system (Roche Life Science).
# Cyclin K forward ([…]) and reverse ([…]) primers were purchased from Eurogentec. Gene expression was normalized using ribosomal 28S as the housekeeping gene.
# JIMT-1 cells = experiment: Cell cycle arrest assessment (propidium iodide, flow cytometry); format: cell-based, human; settings: 24h, 2, 5, 10, and 50nM
# Description: 1×10^6 JIMT-1 cells were plated in 3mL of DMEM/FBS 90:10 (v/v) in 6-well plates and incubated overnight. Cells were treated with the compound 2384 of the invention or with CR8 for 24h. Cells were then harvested and washed three times with PBS. Cells were suspended into 300µL of propidium iodide working solution (0.05mg/mL) and incubated for 45 minutes at 4°C in the dark. Analysis was performed using a BD Fortessa flow cytometer controlled by BD FACSDiva software (BD Biosciences) and data were analyzed using FlowJo software (BD Bioscience).
# [2] = tested on: panel of human cancer cell lines; experiment: In vitro cytotoxicity assay (MTT), panel of cell lines; format: cell-based
# Text: Human cancer cell lines used in the present project were purchased from either the American Type Culture Collection (ATCC), The Leibniz Institute DSMZ German Collection of Microorganisms and Cell Cultures GmbH (DSMZ) or the European Collection of Authenticated Cell Cultures (ECACC). For use in experiments, cells were cultivated following good and established cell culture practices, following instructions from the original ATCC/DSMZ/ECACC supplier for cell culture media & supplement, cryopreservation, and subculturing procedures. Cells were incubated under a 5% CO2 atmosphere at 37°C for no longer than 2 months.
# In vitro cytotoxicity of compounds of the disclosure was assessed on several cancerous human cell lines. Cells were plated in 96-well plates at an appropriate density depending on the cell line (between 1000 and 10 000 cells/well in 100µL of appropriate culture media) and incubated at 37°C for 24 hours. Serial dilutions of the tested compound previously dissolved in culture media (50µL) were added, and incubation was carried at 37°C out for 6 days. MTT (5mg/mL in PBS, 20µL, Sigma-Aldrich) was added into the wells, and incubation was continued for 1 to 4 hours at 37°C. Culture media was then carefully removed, and well content was homogeneously dissolved with acidified isopropanol. Absorbance values were measured on a microplate reader using a wavelength of 570 nm (with a reference wavelength of 690 nm). The IC50 concentration values compared to untreated control cells were determined using inhibition dose response curve fitting (GraphPad Prism 9). Exatecan mesylate (cat#HY-13631A) and CR8 (CAS# 294646-77-8; cat#HY-18340) were purchased from MedChemExpress (China).
smiles,measurement,setting,value
N[C@H]1CC[C@H](Nc2nc(NCc3ccc(-c4ccccn4)cc3)n3ncc(Br)c3n2)CC1 [Compound 2384],average weight change (% initial weight),[1]; Study Day 1,0.0 % initial weight
same,average weight change (% initial weight),[1]; Study Day 2,-2.5 % initial weight
same,average weight change (% initial weight),[1]; Study Day 3,-7.1 % initial weight
same,average weight change (% initial weight),[1]; Study Day 4,-14.6 % initial weight
same,average weight change (% initial weight),[1]; Study Day 5,-15.2 % initial weight
same,average weight change (% initial weight),[1]; Study Day 6,-14.9 % initial weight
same,average weight change (% initial weight),[1]; Study Day 7,-12.4 % initial weight
same,average weight change (% initial weight),[1]; Study Day 8,-9.2 % initial weight
same,average weight change (% initial weight),[1]; Study Day 9,-7.3 % initial weight
same,average weight change (% initial weight),[1]; Study Day 10,-1.9 % initial weight
same,average weight change (% initial weight),[1]; Study Day 11,-0.7 % initial weight
same,average weight change (% initial weight),[1]; Study Day 12,4.1 % initial weight
same,average weight change (% initial weight),[1]; Study Day 13,1.9 % initial weight
same,average weight change (% initial weight),[1]; Study Day 14,-1.8 % initial weight
same,average weight change (% initial weight),[1]; Study Day 15,-3.4 % initial weight
same,average weight change (% initial weight),[1]; Study Day 16,-4.1 % initial weight
same,average weight change (% initial weight),[1]; Study Day 17,-1.6 % initial weight
same,average weight change (% initial weight),[1]; Study Day 18,-0.5 % initial weight
same,average weight change (% initial weight),[1]; Study Day 19,0.7 % initial weight
same,average weight change (% initial weight),[1]; Study Day 20,2.6 % initial weight
same,average weight change (% initial weight),[1]; Study Day 21,2.0 % initial weight
same,CycK protein content,"CycK; 1µM final concentration, 2h",decreased CycK protein content
same,"minimum effective dose for CycK degradation, times lower than that of CR8",CycK; 2h treatment,approximately 10 times
same,concentration inducing complete CycK degradation,"CycK; 2h treatment, decreasing doses",10 nM
same,CycK mRNA level,Cyclin K,not at the CycK mRNA level
same,cell cycle analysis (propidium iodide),JIMT-1 cells,arrest in the G2/M phase
same,in vitro cytotoxic potency,"[2]; panel of human cancer cell lines, in words",low nanomolar potencies
same,cytotoxic potency compared to isopropyl counterpart,"[2]; side-by-side comparison, Figures 1A/1B and 2A/2B",systematically more potent
